# In patent US4120947A, “Xanthine compounds and method of treating bronchospastic and allergic diseases” (priority 1976, dated 1978):
# Where two headings read alike, the source gives them in different places.
# Tests used:
# [1] = test system: histamine-induced bronchoconstriction in the guinea pig; test: BD: bronchodilator activity against histamine-induced bronchoconstriction in the guinea pig; conditions: for inhibition in vivo at 10 mg/kg / inhibition in vivo at 20 mg/kg / inhibition in vivo at 40 mg/kg / inhibition in vivo at 80 mg/kg / inhibition in vivo at 15 mg/kg / inhibition in vivo at 150 mg/kg / inhibition in vivo at 100 mg/kg / inhibition in vivo at 60 mg/kg: Cavia porcellus, po, read-out: BD (guinea pig), % protection; for lethal / bronchodilator effectiveness, in words / onset and duration of action, in words: guinea pig; for bronchodilator effectiveness, in words / onset and duration of action, in words: comparison with corresponding compound
# From the text: BD Bronchodilator activity evaluated against histamine-induced bronchoconstriction in the guinea pig, and expressed as % protection at the stated time interval (in minutes and hours) post-drug against histamine agonist. Doses are expressed in milligrams per kilogram of body weight (mpk) per os (po) or intraperitoneally (ip).
# A modification of the method of Siegmund. O.H., et al., J. Pharmacol. and Exp. Therap. 90:254-9, 1947, is used. Healthy guinea pigs weighing from 250 to 300 grams are placed four at a time and separated by wiring screening in an 11 liter plastic chamber, at the time of peak activity following drug administration. The challenge consists of histamine diphosphate (1% solution) aerosolized in a de Vilbiss -40 nebulizer at 200 mm Hg. Times for prostration are recorded.
# Per cent protection is calculated as follows: [formula] wherein the times are measured in seconds.
# In interpreting the BD data it should be noted that a dose giving less than 40-50% protection is not considered useful. Differences in percent protection of less than 10% are probably not significant.
# [2] = test system: antigen-induced bronchconstriction in rats sensitized with N. brasliensis; test: AA: antiallergy (anti-anaphylactic) activity against antigen-induced bronchoconstriction in sensitized rats
# From the text: The animals are subdivided into control and test groups. Test animals receive a drug either orally, intraperitoneally or intravenously and are challenged with intravenous antigen at fixed time intervals after dosing. Antigen-induced increases in tracheal pressure are monitored and reflect the extent of bronchoconstriction.
# [3] = test system: guinea pig tracheal chain preparation; test: SP: spasmolytic activity in vitro, guinea pig tracheal chain preparation; conditions: Cavia porcellus, read-out: SP in vitro C, molar concentration required to produce maximum relaxation
# From the text: SP Spasmolytic activity evaluated in vitro using guinea pig tracheal chain preparation, and expressed as the molar (M) concentration required to produce maximum relaxation. The method used in that of Castillo and de Beer, J. Pharmac. Expt. Therap. 90, 104, 1947.
# in vivo = test: in vivo
# Experimental: (§1) The LD50 was determined in three species, the mouse (male, 18-25 g), the albino rat (female, 150-200 g) and the albino guinea pig (male 180-280 g) by oral administration and in the albino rat by intraperitoneal administration. The animals are fasted overnight prior to testing. Six groups of ten animals are used; five groups are dosed with the test substance, the sixth group serves as a control and receives the drug vehicle at the highest test concentration. The compounds were administered in a 0.5% gum tragacanth solution in distilled water using a constant logarithmic increment in dose. Dose volume ranged from […].
# (§2) The animals were housed five per cage (rat and guinea pig) or ten per cage (mouse) with free access to food and water. The number of dead animals was recorded daily for five consecutive days. The total mortality per group of ten for each dose level was recorded and LD50 with Confidence Limits calculated according to the method described by Weil, C.
# LD50 mouse = format: in vivo; conditions: in vivo, po
# Experimental: as §1, §2
# [4] = test system: histamine-induced bronchoconstriction in the dog; test: CP: cardiopulmonary activity against histamine-induced bronchoconstriction in the dog; format: in vivo; conditions: histamine challenge
# From the text: Pretreatment with bronchodilator drugs aims to block the bronchospastic response to histamine. Each dog serves as its own control.
# [5] = test system: passive cutaneous anaphylaxis in the rat; test: PCA: passive cutaneous anaphylaxis in the rat; format: in vivo
# Experimental: PCA Antianaphylactic activity against passive cutaneous anaphylaxis in the rat, expressed as % protection against antigen-induced wheal formation.
# The method used is that of Ogilvie, B. M., Immunology 12, 113-131 (1967). Reaginic […] antibodies develope in the rat following subcutaneous injection of Nippostrongylus brasiliensis larvae. Antisera, collected 28 days later are injected subcutaneously into new rats.
# [6] = Rattus norvegicus, ip, 1 h, read-out: AA (rat), % protection
# [7] = Rattus norvegicus, po, 1 h, read-out: AA (rat), % protection
structure (smiles),measurement,setting,value
"CCOC(=O)n1c(C)nc2c1c(=O)n(C)c(=O)n2CC(C)CC (racemic) [Compound 4477, DL-1,8-dimethyl-3-(2-methyl-1-butyl)xanthine-7-carboxylic acid, ethyl ester]",inhibition in vivo at 10 mg/kg,[1]; 0.5 h,47%
same,inhibition in vivo at 10 mg/kg,[1]; 1 h,87%
same,inhibition in vivo at 10 mg/kg,[1]; 6 h,50%
"CCCOC(=O)n1c(C)nc2c1c(=O)n(C)c(=O)n2CC(C)CC (racemic) [Compound 4488, DL-1,8-dimethyl-3-(2-methyl-1-butyl)xanthine-7-carboxylic acid, n-propyl ester]",inhibition in vivo at 10 mg/kg,[1]; 1 h,24%
same,inhibition in vivo at 20 mg/kg,[1]; 1 h,78%
same,inhibition in vivo at 40 mg/kg,[1]; 1 h,100%
same,inhibition in vivo at 10 mg/kg,[1]; 6 h,44%
same,inhibition in vivo at 20 mg/kg,[1]; 6 h,68%
same,inhibition in vivo at 40 mg/kg,[1]; 6 h,89%
same,lethal,[1]; 80 mpK po,1/4
"CCc1nc2c(c(=O)n(C)c(=O)n2CC(C)CC)n1C(=O)OC (racemic) [Compound 4491, DL-1-methyl-3-(2-methyl-1-butyl)-8-ethyl-xanthine-7-carboxylic acid, methyl ester]",inhibition in vivo at 10 mg/kg,[1]; 1 h,25%
same,inhibition in vivo at 40 mg/kg,[1]; 1 h,52%
"CCC(C)Cn1c(=O)n(CC)c(=O)c2c1nc(C)n2C(=O)OC (racemic) [Compound 4494, DL-1-ethyl-3-(2-methyl-1-butyl)-8-methylxanthine-7-carboxylic acid, methyl ester]",inhibition in vivo at 10 mg/kg,[1]; 1 h,0%
same,inhibition in vivo at 40 mg/kg,[1]; 1 h,9%
same,inhibition in vivo at 10 mg/kg,[1]; 6 h,49%
same,inhibition in vivo at 40 mg/kg,[1]; 6 h,80%
same,lethal,[1]; 80 mpK po,2/2
"CCc1nc2c(c(=O)n(CC)c(=O)n2CC(C)CC)n1C(=O)OC (racemic) [Compound 4498, DL-1,8-diethyl-3-(2-methyl-1-butyl)xanthine-7-carboxylic acid, methyl ester]",inhibition in vivo at 40 mg/kg,[1]; 1 h,15%
same,inhibition in vivo at 80 mg/kg,[1]; 1 h,63%
same,inhibition in vivo at 40 mg/kg,[1]; 6 h,38%
same,inhibition in vivo at 80 mg/kg,[1]; 6 h,79%
"CCCC(C)Cn1c(=O)n(C)c(=O)c2c1nc(C)n2C(=O)OC (racemic) [Compound 4515, DL-1,8-dimethyl-3-(2-methyl-1-pentyl)xanthine-7-carboxylic acid, methyl ester]",inhibition in vivo at 20 mg/kg,[1]; 1 h,7%
same,inhibition in vivo at 40 mg/kg,[1]; 1 h,100%
"CC(C)Cn1c(=O)n(C)c(=O)c2[nH]cnc21 [Compound 4258, 1-methyl-3-(isobutyl)xanthine]","AA (rat), toxicity","[2]; 2.0 mpK ip, 1h",tox
same,inhibition in vivo at […],[2]; [6],79%
same,inhibition in vivo at 15 mg/kg,[1]; 0.5 h,45%
same,inhibition in vivo at 15 mg/kg,[1]; 1 h,75%
same,lethal,[1]; 25 mpK po,2/4
"COC(=O)n1cnc2c1c(=O)n(C)c(=O)n2C [Compound 4260, 1,3-dimethylxanthine-7-carboxylic ester, methyl ester]",inhibition in vivo at 75 mg/kg,[2]; [6],82%
same,EC (maximum relaxation),[3],50000 µM
same,inhibition in vivo at 80 mg/kg,[1]; 0.5 h,99%
same,inhibition in vivo at 80 mg/kg,[1]; 1 h,100%
same,inhibition in vivo at 80 mg/kg,[1]; 2 h,86%
same,inhibition in vivo at 80 mg/kg,[1]; 4 h,95%
same,inhibition in vivo at 80 mg/kg,[1]; 6 h,0%
same,"bronchodilator effectiveness, in words",[1],clearly superior to theophylline at the same dose (80 mpK)
same,"onset and duration of action, in words",[1],"more potent, with both faster onset and longer duration of action"
same,"bronchodilator effectiveness, in words","[1]; listed as 1,3-dimethyl-7-carbomethoxyxanthine",significantly more effective than theophylline itself
"COC(=O)n1cnc2c1c(=O)n(C)c(=O)n2CC(C)C [Compound 4274, 1-methyl-3-(isobutyl)xanthine-7-carboxylic acid, methyl ester]",inhibition in vivo at 5 mg/kg,[2]; [6],74%
same,EC (maximum relaxation),[3],500 µM
same,inhibition in vivo at 15 mg/kg,[1]; 0.5 h,92%
same,inhibition in vivo at 15 mg/kg,[1]; 1 h,87%
same,inhibition in vivo at 15 mg/kg,[1]; 2 h,64%
same,inhibition in vivo at 15 mg/kg,[1]; 4 h,18%
same,lethal,[1]; 40 mpK po,1/6
same,"bronchodilator effectiveness, in words",[1],greater protection than 4258 at equal doses
"Cc1nc2c([nH]1)c(=O)n(C)c(=O)n2C [Compound 4296, 1,3,8-trimethylxanthine]",inhibition in vivo at 75 mg/kg,[2]; [6],49%
same,inhibition in vivo at 150 mg/kg,[1]; 0.5 h,68%
same,inhibition in vivo at 100 mg/kg,[1]; 1 h,53%
same,inhibition in vivo at 150 mg/kg,[1]; 1 h,80%
same,inhibition in vivo at 150 mg/kg,[1]; 2 h,71%
same,inhibition in vivo at 100 mg/kg,[1]; 4 h,45%
same,inhibition in vivo at 150 mg/kg,[1]; 4 h,79%
same,inhibition in vivo at 100 mg/kg,[1]; 6 h,43%
same,inhibition in vivo at 150 mg/kg,[1]; 6 h,86%
same,inhibition in vivo at 100 mg/kg,[1]; 10 h,23%
same,inhibition in vivo at 150 mg/kg,[1]; 10 h,85%
CCCC(C)Cn1c(=O)n(C)c(=O)c2c1ncn2C(=O)OC (stereo not drawn) [Compound 4377],inhibition in vivo at 20 mg/kg,[1]; 1 h,64%
same,inhibition in vivo at 80 mg/kg,[1]; 1 h,72%
same,inhibition in vivo at 80 mg/kg,[1]; 4 h,0%
"COC(=O)n1c(C)nc2c1c(=O)n(C)c(=O)n2C [Compound 4378, 1,3,8-trimethylxanthine-7-carboxylic acid, methyl ester]",inhibition in vivo at 75 mg/kg,[2]; [6],54%
same,EC (maximum relaxation),[3],100000 µM
same,inhibition in vivo at 60 mg/kg,[1]; 1 h,96%
same,inhibition in vivo at 60 mg/kg,[1]; 4 h,95%
same,inhibition in vivo at 60 mg/kg,[1]; 6 h,89%
same,"onset and duration of action, in words",[1],effective at lower doses and for longer duration
"CCC(C)Cn1c(=O)n(C)c(=O)c2c1ncn2C(=O)OC (stereo not drawn) [Compound 4380, 1-methyl-3-(2-methyl-1-butyl)xanthine-7-carboxylic acid, methyl ester]",inhibition in vivo at 5 mg/kg,[2]; [7],66%
same,EC (maximum relaxation),[3],1430 µM
same,"BD (guinea pig), % protection","[1]; 20 mpK po, 1h",64%
same,inhibition in vivo at 20 mg/kg,[1]; 1 h,64%
same,inhibition in vivo at 40 mg/kg,[1]; 1 h,99%
same,inhibition in vivo at 40 mg/kg,[1]; 4 h,57%
same,inhibition in vivo at 40 mg/kg,[1]; 6 h,12%
"CCC(C)Cn1c(=O)n(C)c(=O)c2[nH]c(C)nc21 (stereo not drawn) [Compound 4383, 1,8-dimethyl-3-(2-methyl-1-butyl)xanthine]",LD50,"in vivo; in vivo, rat, po",887 mg/kg
same,LD50,LD50 mouse,60.6 mg/kg
same,"BD (guinea pig), % protection","[1]; 10 mpK po, 30'",35%
same,"BD (guinea pig), % protection","[1]; 20 mpK po, 4h",100%
same,"BD (guinea pig), % protection","[1]; 20 mpK po, 6h",97%
same,inhibition in vivo at 10 mg/kg,[1]; 1 h,63%
"COC(=O)n1c(C)nc2c1c(=O)n(C)c(=O)n2CC(C)C [Compound 4390, 1,8-dimethyl-3-isobutylxanthine-7-carboxylic acid, methyl ester]",inhibition in vivo at 2 mg/kg,[2]; [6],60%
same,inhibition in vivo at 4 mg/kg,[2]; [6],52%
same,inhibition in vivo at 2.5 mg/kg,[2]; [7],77%
same,EC (maximum relaxation),[3],1000 µM
same,LD50,"in vivo; guinea pig, po",25.2 mg/kg
same,LD50,"in vivo; in vivo, rat, ip",9.1 mg/kg
same,LD50,"in vivo; in vivo, rat, po",33.5 mg/kg
same,LD50,LD50 mouse,27.6 mg/kg
same,"cardiopulmonary / bronchodilator activity in the dog, in words",[4],significantly reduce the decrease in pulmonary compliance and increase in pulmonary resistance due to histamine administration
same,"Wheal Diameter, % Δ",[5]; 20 mg/kg po,60%
same,"Wheal Diameter, Response (Mean ± S.E.M.)",[5]; 20 mg/kg po,0.74 ± 0.21 cm
same,"Wheal Intensity, % Δ",[5]; 20 mg/kg po,53%
same,"Wheal Intensity, Response (Mean ± S.E.M.)",[5]; 20 mg/kg po,1.10 ± 0.23
same,"antiallergy activity, in words",[5]; rat passive cutaneous anaphylaxis,effective antiallergy agents
same,inhibition in vivo at 10 mg/kg,[1]; 0.5 h,49%
same,inhibition in vivo at 10 mg/kg,[1]; 1 h,86%
same,inhibition in vivo at 10 mg/kg,[1]; 6 h,79%
same,inhibition in vivo at 10 mg/kg,[1]; 10 h,48%
same,lethal,[1]; 20 mpK po,1/2
same,"onset and duration of action, in words",[1],effective at lower doses and for longer duration
"COC(=O)n1c(C)nc2c1c(=O)n(C)c(=O)n2CCC(C)C [Compound 4505, 1,8-dimethyl-3-isopentylxanthine-7-carboxylic acid, methyl ester]",lethal,[1]; 80 mpK po,3/5
"CCCCCn1c(=O)n(C)c(=O)c2c1nc(C)n2C(=O)OC [Compound 4507, 1,8-dimethyl-3-n-pentylxanthine-7-carboxylic acid, methyl ester]",inhibition in vivo at 10 mg/kg,[1]; 1 h,26%
same,inhibition in vivo at 20 mg/kg,[1]; 1 h,52%
same,inhibition in vivo at 40 mg/kg,[1]; 1 h,100%
same,inhibition in vivo at 40 mg/kg,[1]; 6 h,63%
same,lethal,[1]; 80 mpK po,2/2
